Results from patent US20230293629A1, “METHODS FOR ATTENUATING RELEASE OF INFLAMMATORY MEDIATORS AND PEPTIDES USEFUL THEREIN” (BIOMARCK PHARMACEUTICALS LTD., priority 2006, published 2023).
Where a SMILES comes first, the peptide text is derived from it. Where no end group is shown, it is not given here. [ ]: non-standard residue; d: D form. The star is where a group is joined. Myristoyl = CCCCCCCCCCCCCC(=O)*

Assays:
[1] = test system: human neutrophils; assay: PMA-stimulated MPO release from isolated human neutrophils (TMB assay); format: cell-based; details: 100 μM test peptide, two hour incubation with 100 nM PMA; human neutrophils
Source text: Human neutrophil isolation—These studies were approved by the human studies Institutional Review Board (IRB). Human neutrophils were isolated as previously described (see Takashi S, OkuboY, Horie S. Contribution of CD54 to human eosinophil and neutrophil superoxide production. J Appl Physiol 2001; 91:613-622) with slight modifications. Briefly, heparinized venous blood was obtained from normal healthy volunteers, diluted with RPMI-1640 (Cellgro; Mediatech, Inc., Herndon, VA) at a ratio of 1:1, layered onto a Histopaque (density, 1.077 g/ml; Sigma-Aldrich Co., St. Louis, MO) and centrifuged at 400 g for 20 min at 4° C. The supernatant and mononuclear cells at the interface were carefully removed, and erythrocytes in the sediment were lysed in chilled distilled water. Isolated granulocytes were washed twice with Hanks' balanced salts solution (HBSS) and resuspended in HBSS on ice.
Measurement of released neutrophil MPO activity—For measurement of MPO release, purified human neutrophils suspended in HBSS were aliquoted at 4×10^6 cells/ml in 15 ml tubes and preincubated with either 50 or 100 μM of MANS, RNS, or one of the peptides of invention for 10 min at 37° C. The cells then were stimulated with 100 nM phorbol 12-myristate 13-acetate (PMA) for up to 3 hrs. A control reference (PMA control reference) was established using purified human neutrophils suspended in HBSS aliquoted at 4×10^6 cells/ml in 15 mL tubes and stimulated with 100 nM phorbol 12-myristate 13-acetate (PMA) in the absence of a test peptide for the same time periods. The reaction was terminated by placing the tubes on ice and centrifugation at 400 g for 5 min at 4° C.
MPO activity in the cell supernatant was assayed using tetramethylbenzidine (TMB) based on a previously established technique (Abdel-Latif D, Steward M, Macdonald D L, Francis G A., Dinauer M C, Lacy P. Rac2 is critical for neutrophil primary granule exocytosis. Blood 2004; 104:832-839). Briefly, 100 μL of TMB substrate solution was added to 50 μL of cell supernatants or standard human MPO (EMD Biosciences, Inc., San Diego, CA) in a 96-well microplate followed by incubation at room temperature for 15 min. The reaction was terminated by addition of 50 μL of 1M […] and absorbance was read at 450 nm in a spectrophotometric microplate reader (VERSA max, Molecular Devices, Sunnyvale, CA).
The data presented in the table below represents 100 μM concentration of test peptides and a two hour incubation with 100 nM PMA.

[2] = test system: U937 cells; assay: PMA-stimulated lysozyme secretion by U937 cells; format: cell-based, human; details: 50 μM test peptide, two hour incubation with 100 nM PMA; U937 cells
Protocol: (§1) Three types of human leukocyte cell lines, specifically the promyelocytic cell line HL-60 clone 15, the monocytic cell line U937, and the lymphocyte natural killer cell line NK-92 were purchased from American Type Culture Collection (ATCC; Rockville, MD). HL-60 clone 15 cells (ATCC CRL-1964) were maintained in medium consisting of RPMI 1640 with L-glutamine supplemented with 10% heat-inactivated fetal bovine serum (Gibco; Invitrogen Co., Carlsbad, CA), 50 IU/ml penicillin, 50 μg/mL streptomycin, and 25 mM HEPES buffer, pH 7.8, at 37° C. in an atmosphere containing 5% CO2. Final differentiation to an eosinophil-like phenotype was initiated by culturing cells at 5×10^5 cells/ml in the above medium containing 0.5 mM butyric acid (Sigma-Aldrich Co.) for 5 days as previously described (Tiffany H L, Li F, Rosenberg H F. Hyperglycosylation of eosinophil ribonucleases in a promyelocytic leukemia cell line and in differentiated peripheral blood progenitor cells. J Leukoc Biol 1995; 58:49-54; Tiffany H L, Alkhatib G, Combadiere C, Berger E A, Murphy P M. CC chemokine receptors 1 and 3 are differentially regulated by IL-5 during maturation of eosinophilic HL-60 cells. J Immunol 1998; 160:1385-1392). U937 cells (ATCC CRL-1593.2) were grown at 37° C. in an atmosphere of 5% CO2 in complete medium consisting of RPMI 1640 with L-glutamine supplemented with 10% FBS, 50 IU/ml penicillin, and 50 μg/mL streptomycin. NK-92 cells (ATCC CRL-2407) were maintained in alpha-MEM medium (Sigma-Aldrich Co.) supplemented with 20% FBS, 100 U/ml of interleukin-2 (IL-2) (Chemicon International, Inc., Temecula, CA), 5×10^−5 M of 2-mercaptoethanol, 50 IU/mL penicillin, and 50 μg/ml streptomycin at 37° C. in an atmosphere containing 5% CO2. Cell morphology was judged by assessment of Wright-Giemsa-stained cells. Viability of cells harvested for experiments was assessed by trypan blue exclusion and populations of cells with viability >95% were used.
(§2) HL-60 clone 15, U937, and NK-92 cells were washed and resuspended at 2.5×10^6 cells/ml in phenol red-free RPMI-1640 (Cellgro; Mediatech, Inc.) for all degranulation assays. Aliquots of cells in 15 ml tubes were preincubated with indicated concentrations of MANS, RNS, or a test peptide for 10 min at 37° C. The cells then were stimulated with PMA for up to 2 hr. A control reference (PMA control reference) was established for each cell type using HL-60 clone 15, U937, and NK-92 cells, respectively, which were washed and resuspended at 2.5×10^6 cells/ml in phenol red-free RPMI-1640 and stimulated with PMA but in the absence of MANS, RNS, or a test peptide for the same time periods. The reaction was terminated by placing tubes on ice and centrifuging cells at 400 g for 5 min at 4° C.
(§3) For measurements of released MPO from neutrophils and released lysozyme from U937 cells, we were able to quantify secretion by using as standards human MPO and egg white […], respectively. For released EPO from HL-60 clone 15 cells and for released granzyme from NK-92 cells, no standards were available to use for quantification. […] To measure intracellular EPO in HL-60 clone 15 cells and intracellular granzyme in NK-92 cells, appropriate aliquots of 0.1% triton X-100-lysed cells were taken for quantification of intracellular granule proteins as described below. All treatments were expressed as percentage of control to minimize variability between cultures.
Lysozyme secreted by U937 cells was measured using a spectrophotometric assay as described previously (Balboa M A, Saez Y, Balsinde J. Calcium-independent phospholipase A2 is required for lysozyme secretion in U937 promonocytes. J Immunol 2003; 170:5276-5280) with slight modification. Thus, 100 μL of sample was mixed with 100 μL of a Micrococcus lysodeikticus (Sigma-Aldrich Co.) suspension (0.3 mg/ml in 0.1 M sodium phosphate buffer, pH 7.0) in a 96-well microplate. The decrease in absorbance at 450 nm was measured at room temperature. […]

[3] = test system: HL-60 clone 15 cells; assay: PMA-stimulated EPO release from HL-60 clone 15 cells; format: cell-based, human; details: 50 μM test peptide, two hour incubation with 100 nM PMA; HL-60 clone 15 cells
Protocol: as §1, §2, §3
EPO activity released by HL-60 clone 15 cells was assayed using TMB according to a previously established technique (Lacy P, Mahmudi-Azer S, Bablitz B, Hagen S C, Velazquez J R, Man S F, Moqbel R. Rapid mobilization of intracellularly stored RANTES in response to interferon-gamma in human eosinophils. Blood 1999; 94:23-32). Thus, 100 μL of TMB substrate solution was added to 50 μL=microliters) of sample in a 96-well microplate and incubated at room temperature for 15 min (min=minutes). […]

[4] = Qualitative solubility of peptides in 0.5 N saline, pH 6.5

Row | Compound | % Inhibition MPO [1] [%] | % Inhibition Lysozyme [2] [%] | % Inhibition EPO [3] [%] | solubility [4] [mg/mL]
1 | CC(=O)NCC(=O)N[C@H](C)C(=O)N[C@H](CCC(N)=O)C(=O)N[C@H](Cc1ccccc1)C(=O)N[C@H](CO)C(=O)N[C@H](CCCCN)C(=O)N[C@@H](C(=O)N[C@H](C)C(=O)N[C@H](C)C(=O)N[C@H](CCCCN)C(=O)O)[C@H](C)O [Ac-GAQFSKTAAK (all d), GAQFSKTAAK (all d)] (Ac-G[dA][dQ][dF][dS][dK][dT][dA][dA][dK]-OH; C-terminus assumed) | 40.0 | 8.9 | 26.9 | > 100
2 | CCCCCCCCCCCCCC(=O)NCC(=O)N[C@@H](C)C(=O)N[C@@H](CCC(N)=O)C(=O)N[C@@H](Cc1ccccc1)C(=O)N[C@@H](CO)C(=O)N[C@@H](CCCCN)C(=O)N[C@H](C(=O)N[C@@H](C)C(=O)N[C@@H](C)C(=O)N[C@@H](CCCCN)C(=O)NCC(=O)N[C@@H](CCC(=O)O)C(=O)O)[C@@H](C)O [MA-GAQFSKTAAKGE, GAQFSKTAAKGE] (Myristoyl-GAQFSKTAAKGE-OH; C-terminus assumed) | 43.2 | 85.2 | 25.2 | > 2
3 | CCCCCCCCCCCCCC(=O)NCC(=O)N[C@@H](C)C(=O)N[C@@H](CCC(N)=O)C(=O)N[C@@H](Cc1ccccc1)C(=O)N[C@@H](CO)C(=O)N[C@@H](CCCCN)C(=O)N[C@H](C(=O)N[C@@H](CCCCN)C(=O)N[C@@H](C)C(=O)N[C@@H](CCCCN)C(=O)NCC(=O)N[C@@H](CCC(=O)O)C(=O)O)[C@@H](C)O [MA-GAQFSKTKAKGE, GAQFSKTKAKGE] (Myristoyl-GAQFSKTKAKGE-OH; C-terminus assumed) | 65.2 | – | – | > 3
4 | Ac-AQFSKTAAKGE-NH2 [Ac-AQFSKTAAKGE-NH2, AQFSKTAAKGE] | – | 51.8 | 42.8 | > 90
5 | Ac-FSKTAAKGE-NH2 [Ac-FSKTAAKGE-NH2, FSKTAAKGE] | – | 56.7 | 25.3 | > 100
6 | Ac-GAQFSATAAA [Ac-GAQFSATAAA, GAQFSATAAA] | – | 3.2 | 35.7 | < 10
7 | Ac-GAQFSKTA [Ac-GAQFSKTA, GAQFSKTA] | – | 0 | 0 | > 200
8 | Ac-GAQFSKTAA [Ac-GAQFSKTAA, GAQFSKTAA] | – | 28.9 | 33.3 | > 20
9 | Ac-GAQFSKTAAA [Ac-GAQFSKTAAA, GAQFSKTAAA] | – | 28.3 | 55.2 | > 100
10 | Ac-GAQFSKTAAAGE [Ac-GAQFSKTAAAGE, GAQFSKTAAAGE] | – | 37.2 | 55.8 | > 50
11 | Ac-GAQFSKTAAKGA [Ac-GAQFSKTAAKGA, GAQFSKTAAKGA] | – | 24.1 | 40.9 | > 50
12 | Ac-GAQFSKTAAKGE [Ac-GAQFSKTAAKGE, GAQFSKTAAKGE] | – | 43.3 | 46.7 | > 100
13 | Ac-GAQFSKTAAKGE-NH2 [Ac-GAQFSKTAAKGE-NH2, GAQFSKTAAKGE] | 26.5 | 38.6 | 24.7 | > 60
14 | Ac-KTAAKGE-NH2 [Ac-KTAAKGE-NH2, KTAAKGE] | – | 24.3 | 0 | > 200
15 | Ac-QFSKTAAKGE-NH2 [Ac-QFSKTAAKGE-NH2, QFSKTAAKGE] | – | 60.7 | 15.7 | > 150
16 | Ac-SKTAAKGE-NH2 [Ac-SKTAAKGE-NH2, SKTAAKGE] | – | 0 | 42.2 | > 200
17 | Ac-TAAKGEAA [Ac-TAAKGEAA, TAAKGEAA] | – | 0.5 | 40.4 | > 230
18 | H-GAQFSKTAAKGE [peptide 79, GAQFSKTAAKGE] | 27.9 | – | – | –
